Laboratory results: BindingDB's records for doi:10.1002/1098-2396(20010101)39:1 (Nih, 2001)
Where “and” joins values, the source holds several entries; their conditions need not be identical. Identical values can stand only once.

How the values were obtained:
[1] = molecular target: Sodium-dependent dopamine transporter (Rattus norvegicus, UniProt P23977)
[2] = molecular target: Sodium-dependent serotonin transporter (Rattus norvegicus, UniProt P31652)
[3] = molecular target: Norepinephrine transporter (Rattus norvegicus, UniProt Q9JIA2)

Sequence of Sodium-dependent serotonin transporter (P31652 whole entry): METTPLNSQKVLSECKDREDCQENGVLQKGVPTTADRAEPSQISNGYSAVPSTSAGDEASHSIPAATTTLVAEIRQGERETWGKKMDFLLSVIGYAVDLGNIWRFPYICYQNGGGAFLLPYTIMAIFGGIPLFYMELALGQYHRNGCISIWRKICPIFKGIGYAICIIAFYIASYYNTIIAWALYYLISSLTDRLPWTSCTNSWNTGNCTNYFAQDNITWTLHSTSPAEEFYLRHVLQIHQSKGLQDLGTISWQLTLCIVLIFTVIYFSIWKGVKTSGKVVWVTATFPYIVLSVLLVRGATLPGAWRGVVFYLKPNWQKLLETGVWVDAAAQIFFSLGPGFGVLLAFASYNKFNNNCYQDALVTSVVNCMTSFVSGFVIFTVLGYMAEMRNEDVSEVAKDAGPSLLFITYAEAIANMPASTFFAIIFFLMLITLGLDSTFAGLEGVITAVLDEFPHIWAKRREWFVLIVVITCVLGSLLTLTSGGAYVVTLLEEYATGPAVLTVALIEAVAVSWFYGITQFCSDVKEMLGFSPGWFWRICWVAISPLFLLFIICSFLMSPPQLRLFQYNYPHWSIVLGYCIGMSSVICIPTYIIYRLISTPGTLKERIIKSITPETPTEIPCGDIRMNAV
Sequence of Sodium-dependent dopamine transporter (P23977 whole entry): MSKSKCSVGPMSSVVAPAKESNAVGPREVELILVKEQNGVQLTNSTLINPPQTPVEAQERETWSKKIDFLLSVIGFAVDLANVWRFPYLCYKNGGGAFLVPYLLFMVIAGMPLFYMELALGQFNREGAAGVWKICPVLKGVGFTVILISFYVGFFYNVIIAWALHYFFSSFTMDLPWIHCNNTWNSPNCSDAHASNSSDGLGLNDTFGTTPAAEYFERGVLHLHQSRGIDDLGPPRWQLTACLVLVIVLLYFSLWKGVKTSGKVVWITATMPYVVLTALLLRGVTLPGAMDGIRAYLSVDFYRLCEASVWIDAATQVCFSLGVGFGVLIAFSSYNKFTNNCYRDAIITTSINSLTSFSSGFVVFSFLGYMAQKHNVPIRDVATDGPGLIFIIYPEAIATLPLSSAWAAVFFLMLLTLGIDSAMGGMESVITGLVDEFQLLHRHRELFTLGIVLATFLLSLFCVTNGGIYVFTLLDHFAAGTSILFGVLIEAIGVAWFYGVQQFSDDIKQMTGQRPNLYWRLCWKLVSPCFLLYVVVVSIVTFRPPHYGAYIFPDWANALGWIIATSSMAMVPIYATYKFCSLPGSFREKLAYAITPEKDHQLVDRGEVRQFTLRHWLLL

Row | SMILES | Ki [1] | Ki [2] | Ki [3]
1 | NCC(O)c1ccc(O)c(O)c1 (stereo not drawn) [Noradrenaline,(+)] | 357 nM | > 10000 nM | 63.9 nM
2 | O[C@]1(c2ccc(Cl)cc2)c2ccccc2C2=NCCN21 [Mazanor] | 25.9 nM | 272 nM | 2.88 nM
3 | CN1[C@H]2CC[C@@H]1[C@@H](C(=O)N1CCCC1)[C@@H](c1ccc(I)cc1)C2 [RTI-229] |  | 362 nM | 19.5 nM
4 | NCCc1ccc(O)c(O)c1 |  | 6490 nM | 40.3 nM
5 | CC(C)(N)Cc1ccccc1 [2-methyl-1-phenylpropan-2-amine] | 1580 nM | > 10000 nM | 244 nM
6 | CCNC(C)Cc1cccc(C(F)(F)F)c1 (stereo not drawn) [NSC_3337] | > 10000 nM |  | 
7 | NCCc1ccc(O)cc1 | 106 nM | 1560 nM | 72.5 nM
8 | CN[C@@H](C)[C@H](O)c1ccccc1 [Ephedrine,(-)] | 4400 nM | > 10000 nM | 225 nM
9 | CN[C@@H](C)Cc1ccc2c(c1)OCO2 [DL-(3,4-Methylenedioxy)methamphetamine] | 1570 nM | 238 nM | 462 nM
10 | NCCc1c[nH]c2ccc(O)cc12 [[3H]-5-HT] | 2700 nM |  | 3010 nM
11 | c1ccc(CCCN2CCN(CCOC(c3ccccc3)c3ccccc3)CC2)cc1 [GBR-12935] |  |  | 277 nM
12 | NC1=NCC(c2ccccc2)O1 (stereo not drawn) [CAS_2207-50-3] | 216 nM | 1240 nM | 54.5 nM
13 | CN[C@@H](C)Cc1ccccc1 [METHAMPHETAMINE (+)] |  |  | 48 nM and 234 nM
14 | C[C@H](N)Cc1ccccc1 [beta-aminopropylbenzene] |  |  | 38.9 nM
15 | COC(=O)[C@H]1[C@@H](c2ccc(I)cc2)C[C@@H]2CC[C@H]1N2C [RTI 55, (exo,exo)-isomer, Iodine (125) labeled] | 0.83 nM | 1 nM | 5.89 nM
16 | CC(C)(N)Cc1ccc(Cl)cc1 [CAS_461-78-9] | 3940 nM | 338 nM | 451 nM
17 | COC(=O)C1C2CC[C@H](C[C@@H]1c1ccc(N)cc1)N2C (stereo partly drawn) [(3S,8R)-3-(4-Amino-phenyl)-8-methyl-8-aza-bicyclo[3.2.1]octane-2-carboxylic acid methyl ester] | 2.15 nM |  | 
